Drawing on ChEMBL document CHEMBL2062421, “The antioxidant effect of imine resveratrol analogues” (Bioorg Med Chem Lett, 2012), this text covers IC50, inhibition and Ratio IC50 for 26 compounds.

Test [1] in a line: Antioxidant activity assessed as DPPH scavenging activity after 30 mins by microplate reader method. The format is functional. In general terms: Loss of DPPH colour is used to gauge radical scavenging.
A short description of test [2]: Antioxidant activity assessed as singlet 1O2 oxygen quenching activity after 2 mins by EPR spectrometry. The format is functional.
The nature of test [3]: Antioxidant activity assessed as inhibition of TEMP-singlet 1O2 oxygen adduct formation measuring after 2 mins by EPR spectrometry. It is filed as functional.
Test [4] in a line: Ratio of resveratrol IC50 to compound IC50 for singlet 1O2 oxygen quenching activity.
Test [5] is described as follows: Antioxidant activity assessed as inhibition of singlet 1O2 oxygen formation at 1.3 uM after 2 mins by EPR spectrometry. The format is functional.
A short description of test [6]: Antioxidant activity assessed as complete inhibition of singlet 1O2 oxygen formation at 37 uM after 2 mins by EPR spectrometry.

The source made the active and inactive calls. No cut-off for these calls is given here. A value given as a limit tells only on which side of the number the result lay.

For orientation: IC50 means the concentration at which inhibition is half-maximal. `Oc1ccc(/C=C/c2cc(O)cc(O)c2)cc1` [RESVERATROL]: the IC50 in test [1] was determined as 71.2 µM; in test [2] it was 16.9 µM.
In the same order, the values of `COc1cccc(/C=N/c2ccccc2O)c1` are 24.9 µM and 1.42 µM.
For `COc1cccc(/C=N/c2ccc(C)cc2)c1`, the half-inhibitory concentration (IC50) in test [1] is more than 1000 µM.
As for `Oc1ccc(/N=C/c2cc(O)cc(O)c2)cc1`, the IC50 in test [1] turned out to be 164 µM.
Turning to `COc1ccc(/N=C/c2ccc(O)cc2)cc1`, in test [1], the IC50 is more than 1000 µM.
`COc1ccc(/C=N/c2ccccc2O)cc1`: the IC50 in test [1] turned out to be 28.1 µM; in test [2] it was 1.3 µM.
With `Oc1cccc(/C=N/c2ccccc2O)c1`, the IC50 worked out at 23.1 µM in test [1] and 2.18 µM in test [2].
Turning to `Oc1cccc(/N=C/c2ccccc2O)c1`, in test [1], the 50% inhibitory concentration (IC50) was 468 µM.
On the same count and under the same terms, the result for `Cc1cccc(/N=C/c2ccc(O)cc2)c1` reads more than 1000 µM.
Regarding `COc1cc(/C=C/C(=O)CC(=O)/C=C/c2ccc(O)c(OC)c2)ccc1O` [CURCUMIN], the 50% inhibitory concentration (IC50) in test [2] came to 2.75 µM.
Take `Oc1ccc(/N=C/c2ccccc2O)cc1`: in test [1], the half-inhibitory concentration (IC50) was found to be 561 µM.
Still for that read-out and setting: the result for `Cc1ccc(/N=C/c2cccc(O)c2)cc1` reads more than 1000 µM; that for `COc1cccc(/C=N/c2ccccc2C)c1`, more than 1000 µM.
As for `Oc1ccc(/N=C/c2ccccc2)cc1` [4-(BENZYLIDENEAMINO)PHENOL], the IC50 in test [1] was 142 µM.
As for `Oc1ccccc1/C=N/c1ccccc1` [2-((PHENYLIMINO)METHYL)PHENOL], the IC50 in test [1] was more than 1000 µM.
Same read-out and setting: next, `C(=N\c1ccccc1)/c1ccccc1`: more than 1000 µM; `O=C1O[C@H]([C@@H](O)CO)C(O)=C1O` [ASCORBIC ACID]: 19.3 µM.
With `Oc1ccc(/C=N/c2ccccc2O)cc1O`, the values for the 50% inhibitory concentration (IC50) in test [1] and in test [2] were 12.1 µM and 2.26 µM, respectively.
In the same order, the values of `Oc1ccccc1/C=N/c1ccccc1O` are 27.4 µM and 2.92 µM.
Taken in the same sequence, the figures for `Oc1ccccc1/N=C/c1ccccc1` were 23.9 µM and 3.47 µM.
As for `Oc1cccc(/C=N/c2ccccc2)c1`, the concentration for half-maximal inhibition (IC50) in test [1] was more than 1000 µM.
For `Cc1ccc(/N=C/c2ccc(O)cc2)cc1`, the IC50 in test [1] was more than 1000 µM.
Same read-out and setting: next, `COc1ccc(/C=N/c2ccc(OC)cc2)cc1`: more than 1000 µM; `Oc1ccc(/C=N/c2cccc(O)c2)cc1`: 362 µM.
Turning to `Oc1ccc(/C=N/c2ccccc2O)cc1`, the inhibition result in test [3] was “Dose-dependent effect”. The IC50 in test [1] was found to be 24.3 µM; in test [2], 0.99 µM. In addition, the Ratio IC50 in test [4] was more than 15. Further, the inhibition entry in test [5] and in test [6] was “Active” in each case.
Consider `COc1cc(/C=N/c2ccc(O)cc2)cc(OC)c1`, for which the concentration for half-maximal inhibition (IC50) in test [1] worked out at 413 µM.
